What was measured:
S1P1/EDG1 = S1P1/EDG1 (Homo sapiens, UniProt P21453); experiment: S1P1 CRE-bla CHOK1 reporter assay, inhibition of Forskolin induced cAMP; type: cell-based; conditions: CRE-bla CHOK1 cells, with Forskolin; read-out: S1P1 agonist value (EC50)
Protocol: Generation of S1P1-Mediated Inhibition of cAMP Reporter Assay
S1P1/pcDNA3.1 was transfected into the CRE-bla CHO K1 (Invitrogen) cell line, and stable single cell clones were selected using standard techniques.
S1P1 CRE-Bla CHOK1 Reporter Assay—Characterization of S1P1 Agonists
Cells were seeded into 384-well black wall/clear bottom plates at 10^4 cells/well/19.5 μl assay media (DMEM-phenol free, 0.5% charcoal/dextran stripped serum, 2 mM glutamine, 0.1 mM NEAA, 1 mM Na-Pyruvate, 25 mM Hepes) and incubated for 18 hrs at 37° C. in 5% CO2. Dose response curves (10-point) were generated in 10 mM Hepes, 0.1% Pluronic F127, in the presence of Forskolin. Cells were treated with 0.5 μl compound in the presence of 2 μM Forskolin for 4 hrs at 37° C. The FRET-based β-lactamase fluorescent substrate (LiveBLAzer™-FRET B/G Loading Kit CC4-AM; Invitrogen) was prepared according to manufacturer's directions, and incubated with cells for 2 hrs at room temperature. […] Data was analyzed by non-linear regression to determine the EC50 for inhibition of Forskolin induced cAMP.

S1P2 = target: T1, S1P2 (Homo sapiens, UniProt O95136); experiment: Specificity over other S1P receptors: S1P2 CRE-bla CHOK1; type: cell-based; conditions: S1P2 CRE-bla CHOK1, without Forskolin; read-out: S1P2 agonist value (EC50)
T1 construct: expressed in transfected cells; host or cells: CRE-bla CHOK1
Protocol: (§1) Cells were seeded into 384-well black wall/clear bottom plates at 10^4 cells/well/19.5 μl assay media (DMEM-phenol free, 0.5% charcoal/dextran stripped serum, 2 mM glutamine, 0.1 mM NEAA, 1 mM Na-Pyruvate, 25 mM Hepes) and incubated for 18 hrs at 37° C. in 5% CO2. Dose response curves (10-point) were generated in 10 mM Hepes, 0.1% Pluronic F127, in the presence of Forskolin. Cells were treated with 0.5 μl compound in the presence of 2 μM Forskolin for 4 hrs at 37° C. The FRET-based β-lactamase fluorescent substrate (LiveBLAzer™-FRET B/G Loading Kit CC4-AM; Invitrogen) was prepared according to manufacturer's directions, and incubated with cells for 2 hrs at room temperature. Plates were read at Ex:410/Em:458 and Ex:410/Em:522, and the response ratio determined. Data was analyzed by non-linear regression to determine the EC50 for inhibition of Forskolin induced cAMP.
(§2) To assess compound specificity on other S1P receptors the following cell lines were used: S1P2 CRE-bla CHOK1, S1P3-Gα15 NFAT-bla HEK293T (Invitrogen), S1P4-bla TANGO U2OS (Invitrogen), S1P5-bla TANGO U2OS (Invitrogen). The same assay set up for S1P1 was used but without Forskolin. S1P4 and S1P5 assays were performed in FreeStyle Expression medium (Invitrogen). S1P5 cells were incubated for 48 hrs in prior to treatment with compound.

S1P4 = target: T2, S1P4 (Homo sapiens, UniProt O95977); experiment: Specificity over other S1P receptors: S1P4-bla TANGO U2OS; type: cell-based; conditions: without Forskolin, read-out: S1P4 agonist value (EC50)
T2 construct: fused on or other part: Tango handle at the receptor's C-terminus: a TEV protease cleavage site and the Gal4-VP16 transcription factor, possibly a V2 vasopressin receptor tail; The cells also carry a beta-arrestin/TEV protease fusion and a UAS-beta-lactamase reporter
T2 sequence (O95977 1-384): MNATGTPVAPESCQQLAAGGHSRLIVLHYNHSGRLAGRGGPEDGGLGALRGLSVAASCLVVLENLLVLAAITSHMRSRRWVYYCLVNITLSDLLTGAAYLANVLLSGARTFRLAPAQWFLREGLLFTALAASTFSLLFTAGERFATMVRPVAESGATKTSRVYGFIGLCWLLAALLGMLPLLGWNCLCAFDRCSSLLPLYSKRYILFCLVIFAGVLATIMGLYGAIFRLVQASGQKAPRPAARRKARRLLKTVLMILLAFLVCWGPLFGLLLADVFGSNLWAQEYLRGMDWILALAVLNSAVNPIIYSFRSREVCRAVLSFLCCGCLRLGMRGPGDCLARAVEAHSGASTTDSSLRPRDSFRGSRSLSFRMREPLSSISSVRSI
Protocol: as §1, §2

S1P5 = target: T3, S1P5 (Homo sapiens, UniProt Q9H228); experiment: Specificity over other S1P receptors: S1P5-bla TANGO U2OS; type: cell-based; conditions: without Forskolin, read-out: S1P5 agonist value (EC50)
T3 construct: fused on or other part: Tango handle at the receptor's C-terminus: a TEV protease cleavage site and the Gal4-VP16 transcription factor, possibly a V2 vasopressin receptor tail; The cells also carry a beta-arrestin/TEV protease fusion and a UAS-beta-lactamase reporter
Protocol: as §1, §2

peripheral T-cell counts = experiment: Lymphopenia in rats, multiple dose; type: in vivo; conditions: 24 hours after final dose of a 3-5 day multiple dose regimen
Protocol: In rats: Female rats (Simonsen Laboratories, Gilroy Calif.) were housed in an ALAAC accredited facility and the research was approved by the facilities Institutional Animal Care and Use Committee (IACUC). The animals were acclimated to the laboratory for at least 5 days prior to initiation of experiments. Rats (n=3/compound/time-point) were dosed by oral gavage with 1 mg/kg compound formulated in a vehicle consisting of 5% DMSO/5% Tween 20 and 90% 0.1N HCL. Control rats were dosed PO with the vehicle. Whole blood was collected from isoflurane anesthetized rats via the retro-orbital sinus and terminal samples were collected by cardiac puncture into EDTA. Whole blood was incubated with mouse anti-rat CD32 (BD #550271), PE-mouse anti-rat CD45R/B220 (BD #554881), PECy5-mouse anti-rat CD4 (BD #554839), and APC-mouse anti-rat CD8a (eBioscience #17-0084) for 30 minutes on ice. Red blood cells were lysed using BD Pharm Lyse Lysing buffer (#555899) and white blood cells were analyzed with a BD FACSArray. Lymphopenia was expressed as the % of white blood cells that were CD4 or CD8 positive T cells. […]
Prior to the conduct of toxicology studies, the effect of three to five daily doses of each compound on peripheral T-cell counts of female rats was determined (see lymphopenia measurements in rats above). […]

[1] = Therapeutic index, 5 or 14 day toxicology studies in rats (lung to body weight); type: in vivo, Sprague-Dawley rats
Protocol: All studies were conducted in non-fasted male and female Sprague-Dawely rats (Simonsen Laboratories). Rats were housed in an AAALAC accredited facility and the research was approved by the facilities Institutional Animal Care and Use Committee (IACUC). The animals were acclimated to the laboratory for at least 5 days prior to initiation of experiments.
The compounds listed in Table 6 were formulated as suspensions in a vehicle consisting of 0.5% carboxymethyl cellulose (Acros Organics) in purified water (pH adjusted to ˜2.2 with hydrochloric acid). The same formulation was used in the rat lymphopenia and toxicology studies described below. The concentration of each compound in suspension was verified to be within ±10% of the target concentration by HPLC-UV.
Prior to the conduct of toxicology studies, the effect of three to five daily doses of each compound on peripheral T-cell counts of female rats was determined (see lymphopenia measurements in rats above). In these lymphopenia studies, blood samples were collected onto EDTA at intervals after the final study dose. The collection times were not identical for each study; however, all studies included a sample collected 24 hours after the final dose. The lymphopenia data was used as a biomarker to select equally pharmacologically active doses for the subsequent toxicology study. […]

T1 sequence (O95136 whole entry, species assumed): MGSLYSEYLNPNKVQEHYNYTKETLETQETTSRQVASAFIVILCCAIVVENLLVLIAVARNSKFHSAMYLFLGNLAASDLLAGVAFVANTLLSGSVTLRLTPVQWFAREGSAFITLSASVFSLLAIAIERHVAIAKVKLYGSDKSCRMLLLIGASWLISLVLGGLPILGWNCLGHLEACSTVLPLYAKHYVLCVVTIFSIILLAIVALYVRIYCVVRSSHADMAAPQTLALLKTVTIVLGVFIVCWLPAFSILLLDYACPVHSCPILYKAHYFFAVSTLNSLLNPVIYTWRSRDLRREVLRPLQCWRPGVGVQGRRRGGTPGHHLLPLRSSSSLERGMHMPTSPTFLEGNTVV
Chain of S1P1/EDG1 (P21453 whole entry): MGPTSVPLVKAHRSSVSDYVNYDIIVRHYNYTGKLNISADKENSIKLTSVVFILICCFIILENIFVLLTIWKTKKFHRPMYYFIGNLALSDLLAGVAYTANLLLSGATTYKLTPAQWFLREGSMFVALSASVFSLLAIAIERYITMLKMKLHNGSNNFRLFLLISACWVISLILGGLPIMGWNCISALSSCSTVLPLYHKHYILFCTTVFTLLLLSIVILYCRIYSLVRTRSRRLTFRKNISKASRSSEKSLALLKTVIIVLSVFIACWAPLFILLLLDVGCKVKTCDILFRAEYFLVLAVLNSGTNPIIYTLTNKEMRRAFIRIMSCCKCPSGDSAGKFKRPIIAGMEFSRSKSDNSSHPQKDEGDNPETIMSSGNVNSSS
T3 sequence (Q9H228 whole entry, the tested form may be a part): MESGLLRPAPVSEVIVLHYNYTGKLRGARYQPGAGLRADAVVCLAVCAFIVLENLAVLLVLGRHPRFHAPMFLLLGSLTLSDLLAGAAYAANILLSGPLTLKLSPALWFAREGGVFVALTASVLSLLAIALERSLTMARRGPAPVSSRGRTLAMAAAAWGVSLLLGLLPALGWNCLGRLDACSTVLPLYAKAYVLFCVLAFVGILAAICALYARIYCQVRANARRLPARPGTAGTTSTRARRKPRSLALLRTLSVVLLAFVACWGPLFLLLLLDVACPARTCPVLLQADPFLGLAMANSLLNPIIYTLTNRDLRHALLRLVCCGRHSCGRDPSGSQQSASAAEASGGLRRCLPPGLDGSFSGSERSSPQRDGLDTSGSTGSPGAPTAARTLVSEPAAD

**Q.** Which EC50 (S1P1/EDG1) does the source give for CC(C)Oc1ccc(-c2nc(-c3cccc4c3CCC4NS(=O)(=O)CCO)no2)cc1C#N (stereo in doubt) [Compound 186, (R)—N-(4-(5-(3-cyano-4-isopropoxyphenyl)-1,2,4-oxadiazol-3-yl)-2,3-dihydro-1H-inden-1-yl)-2-hydroxyethanesulfonamide] here?
**A.** 0.05 nM

**Q.** And the EC50 (S1P2)?
**A.** 1570 nM

**Q.** What about the EC50 (S1P4) of the same molecule?
**A.** 1210 nM

**Q.** And the EC50 (S1P5)?
**A.** 32.3 nM

**Q.** What about the “Dose Producing 50% lymphopenia” value (peripheral T-cell counts) of the same molecule?
**A.** 0.07 mg/kg

**Q.** And the “TI 5 days” value ([1]; 5 day toxicology study, dose for 10% lung weight increase / dose for 50% T-cell depletion)?
**A.** 16

**Q.** And the “Dose Resulting in 10% increase in lung weight” value ([1]; oral, 5 or 14 consecutive days, interpolated from dose versus lung to body weight)?
**A.** 1.1 mg/kg

Reference: patent publication US20170165236A1, “SELECTIVE SPHINGOSINE 1 PHOSPHATE RECEPTOR MODULATORS AND COMBINATION THERAPY THEREWITH” (Celgene International II Sàrl, priority 2013, published 2017)
